From patent US9409952B2, “Peptide-compound cyclization method” (Chugai Seiyaku Kabushiki Kaisha, priority 2011, dated 2016)
Read-outs that look alike come from different tables or passages of the source. Starred links: 1 amine or outer side, 2 acyl side, 3 side chain; linkers in the order of their positions; H or OH if unused. Positions of bridges follow the written chain, without caps; N, C: chain ends. Non-standard residues stand in square brackets, D forms with d. Residues, ends and D or L forms follow the SMILES beside them. *: point of attachment. Phe(4-(CH2)5CO) = O=C([C@H](Cc1ccc(CCCCCC(=O)[*:3])cc1)N[*:1])[*:2]; Phe(4-CF3) = N[C@@H](Cc1ccc(C(F)(F)F)cc1)C(=O)O; NMeF = CN[C@@H](Cc1ccccc1)C(=O)O; NMeGABA = CN(CCCC(=O)[*:2])[*:1]; NMeI = CC[C@H](C)[C@H](NC)C(=O)O; 3Pal = N[C@@H](Cc1cccnc1)C(=O)O; NMeL = CN[C@@H](CC(C)C)C(=O)O; NMeV = CN[C@H](C(=O)O)C(C)C; NMeA = CN[C@@H](C)C(=O)O; Piperidide = C1CCN(*)CC1; dNMeA = CN[C@H](C)C(=O)O; β3hA = C[C@H](N)CC(=O)O; Abu = CC[C@H](N)C(=O)O; Sar = CNCC(=O)O; tBu = CC(C)(C)*

What was measured:
[1] = Metabolic stability in human hepatic microsome; format: in vitro ADME; conditions: microsomes
[2] = PAMPA (parallel artificial membrane permeability assay); format: in vitro ADME; conditions: PAMPA
Outline: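 Artificial membrane was 10% (w/v) egg lecithin plus 0.5% (w/v) cholesterol in dodecane on a PVDF filter. A 10 mM DMSO stock was added at 0.5% (v/v) to donor buffer (50 mM MOPSO, pH 6.5, 5.0% glycocholic acid). After 18 h at 37 °C, LC/MS or LC/UV gave donor and acceptor levels for Pe.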

[3] = pH 7.4, human hepatic microsome, NADPH(+), read-out: CL NADPH(+)
[4] = membrane permeation rate (Pe), 50 mM MOPSO buffer pH 6.5 with 5.0% glycocholic acid, 37° C., 18 hours, read-out: iPAMPA Pe

SMILES | microsomal CLint at 1 uM [1, 3] | Papp at 18 hours, 50 µM [2, 4] | microsomal CLint at 1 uM ([1]; human, pH 7.4, CL NADPH(+)) | Papp at 18 hours, 50 µM ([2]; pH 6.5)
CC[C@H](C)[C@H]1C(=O)N[C@H](C(=O)N2CCCCC2)CC(=O)N(C)[C@H](C)C(=O)N(C)[C@@H](C(C)C)C(=O)N[C@@H](Cc2ccccc2)C(=O)N[C@@H](CC(C)C)C(=O)N(C)[C@@H](C)C(=O)N[C@@H]([C@@H](C)O)C(=O)N[C@@H](Cc2ccccc2)C(=O)N(C)[C@@H](CC(C)C)C(=O)N[C@@H](CC(C)C)C(=O)NCC(=O)N1C [DP-223] ([dNMeA][NMeV]FL[NMeA]TF[NMeL]LG[NMeI]D-Piperidide; lactam N-12) | 42 µL/min/mg | 23 ×10⁻⁶ cm/s | – | –
CC(C)C[C@@H]1NC(=O)[C@@H](C(C)C)NC(=O)C[C@H](C)NC(=O)[C@H](CC(C)C)N(C)C(=O)[C@H](Cc2ccccc2)N(C)C(=O)[C@H](CC(C)C)N(C)C(=O)[C@H](Cc2ccc(C(F)(F)F)cc2)NC(=O)[C@H](C)N(C)C(=O)[C@H]([C@@H](C)O)NC1=O [DP-790] (cyclo(LT[NMeA][Phe(4-CF3)][NMeL][NMeF][NMeL][β3hA][dV])) | 40 µL/min/mg | 56 ×10⁻⁶ cm/s | – | –
CC[C@@H]1NC(=O)C[C@H](C)NC(=O)[C@H](CC(C)C)N(C)C(=O)[C@H](CC(C)C)N(C)C(=O)[C@H](CC(C)C)N(C)C(=O)[C@@H](C)NC(=O)[C@H](CO)NC(=O)[C@H](CC(C)C)N(C)C(=O)[C@H](CC(C)C)NC(=O)[C@H](CC(C)C)N(C)C(=O)CN(C)C1=O [DP-651] (cyclo([Abu][Sar][NMeL]L[NMeL]S[dA][NMeL][NMeL][NMeL][β3hA])) | 68 µL/min/mg | 24 ×10⁻⁶ cm/s | – | –
CC(C)C[C@H]1C(=O)N(C)[C@@H](C(C)C)C(=O)N[C@@H](Cc2ccccc2)C(=O)N[C@H](C(=O)N2CCCCC2)CC(=O)N(C)CCCC(=O)N[C@@H](COC(C)(C)C)C(=O)N(C)[C@@H](CC(C)C)C(=O)N(C)[C@@H](Cc2ccccc2)C(=O)N[C@@H]([C@@H](C)O)C(=O)NCC(=O)N1C [DP-277] ([NMeGABA]S(tBu)[NMeL][NMeF]TG[NMeL][NMeV]FD-Piperidide; lactam N-10) | 389 µL/min/mg | 38 ×10⁻⁶ cm/s | – | –
CC[C@H](C)[C@H](NC(=O)[C@H](CC(C)C)NC(=O)[C@H](CC(C)C)N(C)C(=O)CN(C)C(=O)[C@@H]1CC(=O)N[C@H](C)C(=O)N[C@@H]([C@@H](C)O)C(=O)N(C)[C@@H](CC(C)C)C(=O)N[C@@H]([C@@H](C)CC)C(=O)N(C)[C@@H](CC(C)C)C(=O)N[C@@H](CC(C)C)C(=O)N1)C(=O)N1CCCCC1 [DP-919] ([dA]T[NMeL]I[NMeL]LD[Sar][NMeL]LI-Piperidide; lactam N-7) | 128 µL/min/mg | 27 ×10⁻⁶ cm/s | – | –
CC(C)C[C@@H]1NC(=O)[C@H](Cc2ccccc2)N(C)C(=O)[C@H]([C@@H](C)O)NC(=O)[C@H](Cc2ccccc2)N(C)C(=O)[C@H](C)N(C)C(=O)[C@H](C)NC(=O)C[C@@H](C(=O)N2CCCCC2)NC1=O [DP-539] (A[NMeA][NMeF]T[NMeF]LD-Piperidide; lactam N-7) | 260 µL/min/mg | 20 ×10⁻⁶ cm/s | – | –
CC(C)C[C@H]1C(=O)N(C)[C@@H](CC(C)C)C(=O)N[C@H](C(=O)N2CCCCC2)CC(=O)N(C)CCCC(=O)N(C)[C@@H](Cc2ccccc2)C(=O)N[C@@H]([C@@H](C)O)C(=O)N(C)CC(=O)N[C@@H](COC(C)(C)C)C(=O)N1C [DP-525] ([NMeGABA][NMeF]T[Sar]S(tBu)[NMeL][NMeL]D-Piperidide; lactam N-8) | 86 µL/min/mg | 22 ×10⁻⁶ cm/s | – | –
CC[C@H](C)[C@H]1C(=O)N(C)[C@@H](Cc2ccccc2)C(=O)NCC(=O)N(C)[C@@H](Cc2ccccc2)C(=O)N(C)[C@@H](CC(C)C)C(=O)N(C)[C@@H](CC(C)C)C(=O)N[C@H](C(=O)N2CCCCC2)CC(=O)N[C@H](C(C)C)C(=O)N[C@@H]([C@@H](C)O)C(=O)N(C)[C@@H](C)C(=O)N1C [DP-72] ([dV]T[NMeA][NMeI][NMeF]G[NMeF][NMeL][NMeL]D-Piperidide; lactam N-10) | – | – | 58 µL/min/mg | 27 ×10⁻⁶ cm/s
CC[C@H](C)[C@H]1C(=O)N[C@H](C(=O)N2CCCCC2)CC(=O)N[C@H](C(C)C)C(=O)N[C@@H]([C@@H](C)O)C(=O)N(C)[C@@H](C)C(=O)N(C)[C@@H](C(C)C)C(=O)N[C@@H](Cc2ccccc2)C(=O)N(C)[C@@H](CC(C)C)C(=O)N[C@@H](C)C(=O)N(C)CC(=O)N1C [DP-253] ([dV]T[NMeA][NMeV]F[NMeL]A[Sar][NMeI]D-Piperidide; lactam N-10) | 42 µL/min/mg | 7.5 ×10⁻⁶ cm/s | – | –
CC(C)C[C@H]1C(=O)N(C)[C@@H](CC(C)C)C(=O)N(C)[C@@H](Cc2ccccc2)C(=O)N(C)[C@@H](CC(C)C)C(=O)N[C@H](C(=O)N(C)[C@@H](Cc2ccccc2)C(=O)N[C@@H](C)C(=O)N2CCCCC2)CC(=O)N(C)CC(=O)N[C@@H]([C@@H](C)O)C(=O)N(C)[C@@H](Cc2ccccc2)C(=O)N(C)[C@@H](CC(C)C)C(=O)N[C@@H](C)C(=O)N1C [DP-493] ([Sar]T[NMeF][NMeL]A[NMeL][NMeL][NMeF][NMeL]D[NMeF]A-Piperidide; lactam N-10) | 52 µL/min/mg | 2.4 ×10⁻⁶ cm/s | – | –
CC[C@H](C)[C@H]1C(=O)N[C@@H](Cc2ccccc2)C(=O)N[C@@H](Cc2ccccc2)C(=O)N2CCC[C@H]2C(=O)N[C@@H]([C@@H](C)O)C(=O)N(C)[C@@H](CC(C)C)C(=O)N[C@H](C(=O)N2CCCCC2)CC(=O)N[C@@H](C)C(=O)N[C@@H](C)C(=O)N(C)[C@@H](CC(C)C)C(=O)N[C@@H](CC(C)C)C(=O)N1C [DP-29] (AA[NMeL]L[NMeI]FFPT[NMeL]D-Piperidide; lactam N-11) | – | – | 158 µL/min/mg | 31 ×10⁻⁶ cm/s
CC(C)C[C@@H]1NC(=O)[C@H](Cc2cccnc2)NC(=O)[C@@H]2CCCN2C(=O)[C@H](C)NC(=O)[C@H](CC(C)C)N(C)C(=O)[C@H](Cc2ccccc2)NC(=O)[C@H](C)N(C)C(=O)[C@H](CC(C)C)N(C)C(=O)[C@H](Cc2ccccc2)NC(=O)[C@H](C)N(C)C(=O)C[C@@H](C(=O)N(C)[C@@H](Cc2ccccc2)C(=O)N[C@@H](C)C(=O)N2CCCCC2)NC1=O [DP-599] ([NMeA]F[NMeL][NMeA]F[NMeL]AP[3Pal]LD[NMeF]A-Piperidide; lactam N-11) | – | – | 84 µL/min/mg | 28 ×10⁻⁶ cm/s
CC[C@H](C)[C@H]1C(=O)N(C)[C@@H](C)C(=O)N(C)[C@@H](CC(C)C)C(=O)N[C@@H](COC(C)(C)C)C(=O)N(C)[C@@H](CC(C)C)C(=O)N[C@@H](C)CC(=O)N(C)[C@@H](C)C(=O)N(C)[C@@H](Cc2ccccc2)C(=O)N[C@@H](C)C(=O)N(C)[C@@H](CC(C)C)C(=O)N[C@@H]([C@@H](C)O)C(=O)N[C@@H](Cc2ccccc2)C(=O)N1C [DP-759] (cyclo(A[NMeL]TF[NMeI][NMeA][NMeL]S(tBu)[NMeL][β3hA][NMeA][NMeF])) | – | – | 144 µL/min/mg | 27 ×10⁻⁶ cm/s
CC[C@H](C)[C@@H]1NC(=O)[C@H](Cc2ccccc2)NC(=O)[C@H](C(C)C)N(C)C(=O)CN(C)C(=O)C[C@@H](C(=O)N2CCCCC2)NC(=O)[C@H]([C@@H](C)O)NC(=O)[C@H](CC(C)C)N(C)C(=O)[C@H](Cc2ccccc2)NC(=O)[C@H](CC(C)C)N(C)C(=O)CNC(=O)[C@H](CC(C)C)NC(=O)[C@H](C)N(C)C1=O [DP-137] ([Sar][NMeV]FI[NMeA]LG[NMeL]F[NMeL]TD-Piperidide; lactam N-12) | 86 µL/min/mg | 32 ×10⁻⁶ cm/s | – | –
CC[C@H](C)[C@H]1C(=O)N[C@@H](C)C(=O)N[C@H](C(=O)N2CCCCC2)CC(=O)N(C)[C@@H](C)C(=O)N[C@@H]([C@@H](C)O)C(=O)N(C)[C@@H](C)C(=O)N(C)[C@@H](C(C)C)C(=O)N[C@@H](Cc2ccccc2)C(=O)N(C)CC(=O)N(C)[C@@H](CC(C)C)C(=O)N1C [DP-73] ([NMeA]T[NMeA][NMeV]F[Sar][NMeL][NMeI]AD-Piperidide; lactam N-10) | – | – | 30 µL/min/mg | 5.4 ×10⁻⁶ cm/s
CC[C@H](C)[C@@H]1NC(=O)[C@@H]2CCCN2C(=O)[C@H](CC(C)C)N(C)C(=O)[C@H](Cc2ccccc2)NC(=O)CCCN(C)C(=O)C[C@@H](C(=O)N(C)[C@@H](Cc2ccccc2)C(=O)N[C@@H](C)C(=O)N2CCCCC2)NC(=O)[C@H]([C@@H](C)O)NC(=O)[C@H](CC(C)C)NC(=O)[C@H](Cc2ccccc2)N(C)C(=O)CNC(=O)[C@H](CC(C)C)N(C)C1=O [DP-364] ([NMeGABA]F[NMeL]PI[NMeL]G[NMeF]LTD[NMeF]A-Piperidide; lactam N-11) | 75 µL/min/mg | 28 ×10⁻⁶ cm/s | – | –
CC(C)C[C@@H]1NC(=O)[C@H](CC(C)C)N(C)C(=O)[C@H](C)NC(=O)[C@H](C(C)C)N(C)C(=O)[C@H](C)N(C)C(=O)CN(C)C(=O)[C@H]([C@@H](C)O)NC(=O)[C@H](Cc2ccccc2)NC(=O)[C@H](CC(C)C)N(C)C(=O)[C@@H](C)N(C)C(=O)C[C@@H](C(=O)N2CCCCC2)NC1=O [DP-243] ([dNMeA][NMeL]FT[Sar][NMeA][NMeV]A[NMeL]LD-Piperidide; lactam N-11) | 32 µL/min/mg | 8.4 ×10⁻⁶ cm/s | – | –
CC[C@H](C)[C@H]1C(=O)N[C@@H](C)C(=O)N(C)[C@@H](Cc2ccccc2)C(=O)N[C@@H]([C@@H](C)O)C(=O)N(C)[C@@H](CC(C)C)C(=O)N[C@@H](Cc2ccccc2)C(=O)N(C)[C@@H](C(C)C)C(=O)N[C@H](C(=O)N2CCCCC2)Cc2ccc(cc2)CCCCCC(=O)NCC(=O)N(C)[C@@H](CC(C)C)C(=O)N1C [DP-865] (G[NMeL][NMeI]A[NMeF]T[NMeL]F[NMeV][Phe(4-(CH2)5CO)]-Piperidide; lactam N-10) | 87 µL/min/mg | 15 ×10⁻⁶ cm/s | – | –
CC(C)C[C@@H]1NC(=O)[C@H](C)NC(=O)[C@H]([C@@H](C)O)NC(=O)[C@H](C)N(C)C(=O)C[C@@H](C(=O)N2CCCCC2)NC(=O)[C@H](CC(C)C)N(C)C(=O)[C@H](CC(C)C)NC(=O)[C@H](C(C)C)N(C)C(=O)[C@H](CC(C)C)NC(=O)[C@H](Cc2ccccc2)NC(=O)CN(C)C1=O [DP-421] ([NMeA]TAL[Sar]FL[NMeV]L[NMeL]D-Piperidide; lactam N-11) | 171 µL/min/mg | 29 ×10⁻⁶ cm/s | – | –
